Where two headings read alike, the source gives them in different places.
Columns and labels:
OXPHOS gene expression = assay type: cell-based, mouse; conditions: for GE-HTS (composite Z-score): normalized score vs mock-treated (DMSO) wells
C2C12 myotubes = conditions: for Viability (composite Z-score): normalized score vs mock-treated (DMSO) wells
[1] = system: cellular dehydrogenase activity; conditions: for MTT (composite Z-score): normalized score vs mock-treated (DMSO) wells
mtOXPHOS transcripts = assay type: cell-based, mouse; conditions: for mitoOX (composite Z-score): normalized score vs mock-treated (DMSO) wells
cytochrome c = assay type: cell-based, mouse; conditions: for cyt c (composite Z-score): normalized score vs mock-treated (DMSO) wells
nuOXPHOS transcripts = assay type: cell-based, mouse; conditions: for nucOX (composite Z-score): normalized score vs mock-treated (DMSO) wells
[2] = system: mitochondrial membrane potential; assay type: cell-based, mouse; conditions: for ΔΨm (composite Z-score): normalized score vs mock-treated (DMSO) wells
reactive oxygen species = assay type: cell-based, mouse; conditions: for ROS (composite Z-score): normalized score vs mock-treated (DMSO) wells
[3] = 20 μM, composite Z-score vs DMSO
[4] = composite Z-score vs DMSO wells, Conc 20 μM
[5] = normalized composite Z-score vs mock-treated (DMSO) wells, Conc 20 μM
[6] = Table 7, C2C12 myotubes, 48 h, composite Z-score
[7] = composite Z-score vs mock-treated (DMSO) wells, Conc 20 μM
[8] = composite Z-score vs DMSO, Conc 20 μM
[9] = composite Z-score vs mock-treated (DMSO) wells, concentration of each compound in μM

COc1cc(O)c2c(=O)cc(-c3ccc(O)cc3)oc2c1 [genkwanin]
GE-HTS (composite Z-score) (OXPHOS gene expression; Conc 20 μM): 0.425 | Viability (composite Z-score) (C2C12 myotubes; Conc 20 μM): −0.323 | MTT (composite Z-score) ([1]; Conc 20 μM): −2.090 | mitoOX (composite Z-score) (mtOXPHOS transcripts; Conc 20 μM): 0.389 | cyt c (composite Z-score) (cytochrome c; Conc 20 μM): −0.037 | nucOX (composite Z-score) (nuOXPHOS transcripts; Conc 20 μM): 0.407 | ΔΨm (composite Z-score) ([2]; Conc 20 μM): −0.491 | ROS (composite Z-score) (reactive oxygen species; Conc 20 μM): 3.337

CCCC(C(=O)OCCN(CC)CC)(c1ccccc1)c1ccccc1 [proadifen]
GE-HTS (OXPHOS gene expression): −0.364 | GE-HTS (OXPHOS gene expression; [3]): −0.377 | Viability (C2C12 myotubes): −0.388 | Viability (C2C12 myotubes; [3]): −1.715 | MTT [1]: −1.220 | MTT [1, 3]: −1.808 | mitoOX (mtOXPHOS transcripts): −0.201 | mitoOX (mtOXPHOS transcripts; [3]): −0.595 | cyt c (cytochrome c): 0.223 | cyt c (cytochrome c; [3]): −0.077 | nucOX (nuOXPHOS transcripts): −0.414 | nucOX (nuOXPHOS transcripts; [3]): −0.243 | ΔΨm [2]: −0.557 | ΔΨm [2, 3]: −0.654 | ROS (reactive oxygen species): 0.616 | ROS (reactive oxygen species; [3]): 0.678

O=c1[nH]c(=O)n([C@H]2C[C@H](O)[C@@H](CO)O2)cc1F [floxuridine]
GE-HTS (OXPHOS gene expression; [4]): 0.909 | Viability (C2C12 myotubes; [4]): −0.712 | MTT [1, 4]: −1.643 | mitoOX (mtOXPHOS transcripts; [4]): 0.539 | cyt c (cytochrome c; [4]): −0.314 | nucOX (nuOXPHOS transcripts; [4]): 0.993 | ΔΨm [2, 4]: −1.275 | ROS (reactive oxygen species; [4]): 0.063

OCc1ccccc1O [salicyl alcohol]
GE-HTS (OXPHOS gene expression; [4]): −0.486 | Viability (C2C12 myotubes; [4]): 0.377 | MTT [1, 4]: −0.178 | mitoOX (mtOXPHOS transcripts; [4]): −0.498 | cyt c (cytochrome c; [4]): 0.424 | nucOX (nuOXPHOS transcripts; [4]): −0.433 | ΔΨm [2, 4]: −0.590 | ROS (reactive oxygen species; [4]): 0.479

COc1cc2c(cc1OC)[C@@H]1C(=O)c3ccc4oc(C(C)C)cc4c3O[C@@H]1CO2 [isorotenone, reference compound]
GE-HTS (OXPHOS gene expression; [5]): −3.751 | Viability (C2C12 myotubes; [5]): −1.954 | MTT [1, 5]: −4.373 | mito-OXPHOS Z (mtOXPHOS transcripts; [6]): −4.57 | mitoOX (mtOXPHOS transcripts; [5]): −4.571 | cyt c (cytochrome c; [5]): −3.397 | nucOXPHOS Z (nuOXPHOS transcripts; [6]): −3.02 | nucOX (nuOXPHOS transcripts; [5]): −3.017 | ΔΨm [2, 5]: −1.329 | ROS (reactive oxygen species; [5]): −0.782

CC(=O)O[C@@H]1CC[C@@]2(C)C(C[C@@H](OC(C)=O)[C@@]3(C)C4=CC(=O)O[C@@H](c5ccoc5)[C@]4(C)CCC23)C1(C)C (stereo partly drawn) [3alpha-acetoxydihydrodeoxygedunin]
GE-HTS (OXPHOS gene expression; [7]): −0.987 | Viability (C2C12 myotubes; [7]): 0.781 | MTT [1, 7]: −1.653 | mitoOX (mtOXPHOS transcripts; [7]): −0.584 | cyt c (cytochrome c; [7]): 0.179 | nucOX (nuOXPHOS transcripts; [7]): −1.123 | ΔΨm [2, 7]: 1.157 | ROS (reactive oxygen species; [7]): 2.371

CO/N=C(\C(=O)N[C@@H]1C(=O)N2C(C(=O)OCOC(=O)C(C)(C)C)=C(/C=C\c3scnc3C)CS[C@H]12)c1csc(N)n1 [cefditorin pivoxil]
GE-HTS (OXPHOS gene expression; [8]): 0.238 | Viability (C2C12 myotubes; [8]): −0.219 | MTT [1, 8]: −0.718 | mitoOX (mtOXPHOS transcripts; [8]): 0.440 | cyt c (cytochrome c; [8]): 0.200 | nucOX (nuOXPHOS transcripts; [8]): 0.100 | ΔΨm [2, 8]: 0.245 | ROS (reactive oxygen species; [8]): 0.426

COc1ccc2oc3ccccc3c(=O)c2c1 [2-methoxyxanthone]
GE-HTS (OXPHOS gene expression; [8]): −0.467 | Viability (C2C12 myotubes; [8]): −0.428 | MTT [1, 8]: −1.044 | mitoOX (mtOXPHOS transcripts; [8]): 0.165 | cyt c (cytochrome c; [8]): 1.007 | nucOX (nuOXPHOS transcripts; [8]): −0.710 | ΔΨm [2, 8]: 0.540 | ROS (reactive oxygen species; [8]): 1.398

O=C(O)CCC/C=C\CC1COC(C(F)(F)F)OC1c1ccccc1O (stereo not shown)
GE-HTS (OXPHOS gene expression; [9]): 0.344 | Viability (C2C12 myotubes; [9]): −0.413 | MTT [1, 9]: −0.548 | mitoOX (mtOXPHOS transcripts; [9]): 0.594 | cyt c (cytochrome c; [9]): −0.437 | nucOX (nuOXPHOS transcripts; [9]): 0.169 | ΔΨm [2, 9]: −0.087 | ROS (reactive oxygen species; [9]): 0.713

O=C(O)Cc1cc(I)c(Oc2cc(I)c(O)c(I)c2)c(I)c1 [tetrac]
GE-HTS (composite Z-score) (OXPHOS gene expression; Conc 20 μM): 0.811 | Viability (composite Z-score) (C2C12 myotubes; Conc 20 μM): 1.361 | MTT (composite Z-score) ([1]; Conc 20 μM): −0.677 | mitoOX (composite Z-score) (mtOXPHOS transcripts; Conc 20 μM): 0.898 | cyt c (composite Z-score) (cytochrome c; Conc 20 μM): 0.674 | nucOX (composite Z-score) (nuOXPHOS transcripts; Conc 20 μM): 0.714 | ΔΨm (composite Z-score) ([2]; Conc 20 μM): −1.457 | ROS (composite Z-score) (reactive oxygen species; Conc 20 μM): 2.718

Cc1cc(O)c(C=O)c(O)c1C(=O)O [haematommic acid]
GE-HTS (OXPHOS gene expression; [8]): −0.410 | Viability (C2C12 myotubes; [8]): −0.412 | MTT [1, 8]: −0.740 | mitoOX (mtOXPHOS transcripts; [8]): −1.067 | cyt c (cytochrome c; [8]): 0.631 | nucOX (nuOXPHOS transcripts; [8]): −0.078 | ΔΨm [2, 8]: 0.002 | ROS (reactive oxygen species; [8]): −1.077

ClC1=C(Cl)C2(Cl)C3C4CC(C5OC45)C3C1(Cl)C2(Cl)Cl (stereo not shown) [endrin]
GE-HTS (OXPHOS gene expression; [3]): −0.680 | Viability (C2C12 myotubes; [3]): 0.522 | MTT [1, 3]: −1.710 | mitoOX (mtOXPHOS transcripts; [3]): −0.385 | cyt c (cytochrome c; [3]): 0.726 | nucOX (nuOXPHOS transcripts; [3]): −0.738 | ΔΨm [2, 3]: 0.129 | ROS (reactive oxygen species; [3]): 0.770

— patent US20090143279A1 (priority 2007, published 2009)
